Measured values from paper PMC9454848, “BMS-986158, a Small Molecule Inhibitor of the Bromodomain and Extraterminal Domain Proteins, in Patients with Selected Advanced Solid Tumors: Results from a Phase 1/2a Trial” (Cancers, 2022).
Entries after “also recorded” stand apart in the source; their conditions may differ. Read-outs that look alike come from different tables or passages of the source.

Tests used:
[1] = test system: HEXIM1 mRNA; experiment: Change from baseline in gene expression, HEXIM1; format: in vivo, human; conditions: patients; by dose
Description: Summary changes from baseline in the expression of BET-regulated genes were assessed in tumor tissues and blood collected at baseline and multiple on-treatment time points after BMS-986158 administration following the 3 dosing schedules. The study also assessed summary percent changes from baseline in expression of BET-regulated genes in peripheral blood and tumors (such as HEXIM1 and C-MYC). Tissue and peripheral blood samples (at baseline and on treatment) were collected for genomic, transcriptomic, and epigenetic analyses (by DNA or mRNA) to assess pharmacodynamic changes in BET-regulated genes. These samples were analyzed using whole-exome sequencing, real-time quantitative polymerase chain reaction, and RNA-sequencing methods.
All treated patients with available biomarker measurements at baseline and ≥1 time point were included in the biomarker analyses. Blood and tumor tissue samples were collected at baseline, during treatment, and at end of treatment for biomarker analysis. Markers of selected BET-regulated genes (e.g., HEXIM1) were analyzed with summary statistics for percent changes in expression from available matched pre- and on-treatment samples over time relative to baseline. Statistically significant changes in gene expression were determined using the Benjamini–Hochberg procedure to calculate an adjusted p value with an α level of 0.05.

[2] = Plasma pharmacokinetics after single dose (C1D1), LC-MS/MS; format: in vivo, human; conditions: for half-life / Vd/F / AUC(0-t) / Tmax / Cmax: human, plasma, oral
Description: At C1D1 in every dosing schedule cohort, a single dose was administered followed by 168 h (i.e., 7 days) of intensive PK sampling. Following cycle 1, the multiple-dose treatment schedules (described above) began in cycle 2. PK parameters were derived following single dose combined across all schedules and multiple doses at cycle 2 for each schedule. […] PK assessments were evaluated for BMS-986158 and its metabolite using plasma samples at regular intervals. Both the parent and metabolite samples were simultaneously analyzed using a validated liquid chromatography and tandem mass spectrometry assay.
All treated patients who received ≥1 dose of BMS-986158 were evaluated in the safety population. […] All treated patients with available and sufficient serum or plasma samples for the corresponding analytes were included in the PK analyses. […] ECG parameters were evaluated in a categorical analysis, and linear mixed-effects regression modeling was used to describe the quantitative relationship between ΔQTcF and time-matched serum concentrations of BMS-986158 or its metabolite at a single dose.

Compound: Cc1nnn(C)c1-c1cnc2c3ccc(C(C)(C)O)cc3n([C@H](c3ccccc3)C3CCOCC3)c2c1 [BMS-986158]
- HEXIM1 mRNA expression change from baseline [1]: dose dependently upregulated; also recorded: transcriptional activation
- Dose proportionality of plasma concentrations ([2]; 0.75–4.5 mg): dose proportional
- half-life ([2]; 0.75 mg, cohort Schedule A, 0.75 mg, n = 4, read-out: Effective T1/2, mean (SD) (converted)): 33.7 h
- Vd/F ([2]; 0.75 mg, cohort Schedule A, 0.75 mg, n = 4, read-out: Vz/F, GM (%CV)): 14.7 L
- AUC(0-t) ([2]; 0.75 mg, cohort Schedule A, 0.75 mg, n = 5, read-out: AUC(0–24), GM (%CV)): 1030 ng·h/mL
- AUC(0-t) ([2]; 0.75 mg, cohort Schedule A, 0.75 mg, n = 5, read-out: AUC(0–T), GM (%CV)): 2150 ng·h/mL
- Tmax ([2]; 0.75 mg, cohort Schedule A, 0.75 mg, n = 5, read-out: Tmax, median): 4 h
- Cmax ([2]; 0.75 mg, cohort Schedule A, n = 5): 68.8 ng/mL
- AUC(0-t) ([2]; 1.25 mg, cohort Schedule A, 1.25 mg, n = 3, read-out: AUC(0–24), GM (%CV)): 2310 ng·h/mL
- AUC(0-t) ([2]; 1.25 mg, cohort Schedule A, 1.25 mg, n = 3, read-out: AUC(0–T), GM (%CV)): 6370 ng·h/mL
- half-life ([2]; 1.25 mg, cohort Schedule A, 1.25 mg, n = 3, read-out: Effective T1/2, mean (SD) (converted)): 48.7 h
- Tmax ([2]; 1.25 mg, cohort Schedule A, 1.25 mg, n = 3, read-out: Tmax, median): 1 h
- Vd/F ([2]; 1.25 mg, cohort Schedule A, 1.25 mg, n = 3, read-out: Vz/F, GM (%CV)): 12.5 L
- Cmax ([2]; 1.25 mg, cohort Schedule A, n = 3): 175 ng/mL
- half-life ([2]; 2 mg, cohort Schedule A, 2.0 mg, n = 4, read-out: Effective T1/2, mean (SD) (converted)): 41.4 h
- Vd/F ([2]; 2 mg, cohort Schedule A, 2.0 mg, n = 4, read-out: Vz/F, GM (%CV)): 14.6 L
- AUC(0-t) ([2]; 2 mg, cohort Schedule A, 2.0 mg, n = 9, read-out: AUC(0–24), GM (%CV)): 3610 ng·h/mL
- AUC(0-t) ([2]; 2 mg, cohort Schedule A, 2.0 mg, n = 9, read-out: AUC(0–T), GM (%CV)): 8560 ng·h/mL
- Tmax ([2]; 2 mg, cohort Schedule A, 2.0 mg, n = 9, read-out: Tmax, median): 2 h
- Cmax ([2]; 2 mg, cohort Schedule A, n = 9): 260 ng/mL
- AUC(0-t) ([2]; 2 mg, cohort Schedule B, 2.0 mg, n = 1, read-out: AUC(0–24), GM (%CV)): 2360 ng·h/mL
- AUC(0-t) ([2]; 2 mg, cohort Schedule B, 2.0 mg, n = 1, read-out: AUC(0–T), GM (%CV)): 5200 ng·h/mL
- half-life ([2]; 2 mg, cohort Schedule B, 2.0 mg, n = 1, read-out: Effective T1/2, mean (SD) (converted)): 44.2 h
- Tmax ([2]; 2 mg, cohort Schedule B, 2.0 mg, n = 1, read-out: Tmax, median): 1 h
- Vd/F ([2]; 2 mg, cohort Schedule B, 2.0 mg, n = 1, read-out: Vz/F, GM (%CV)): 23.2 L
- Cmax ([2]; 2 mg, cohort Schedule B, n = 1): 207 ng/mL
- AUC(0-t) ([2]; 2 mg, cohort Schedule C, 2.0 mg, n = 6, read-out: AUC(0–24), GM (%CV)): 3660 ng·h/mL
- AUC(0-t) ([2]; 2 mg, cohort Schedule C, 2.0 mg, n = 6, read-out: AUC(0–T), GM (%CV)): 10900 ng·h/mL
- half-life ([2]; 2 mg, cohort Schedule C, 2.0 mg, n = 6, read-out: Effective T1/2, mean (SD) (converted)): 64.6 h
- Tmax ([2]; 2 mg, cohort Schedule C, 2.0 mg, n = 6, read-out: Tmax, median): 1 h
- Vd/F ([2]; 2 mg, cohort Schedule C, 2.0 mg, n = 6, read-out: Vz/F, GM (%CV)): 13.9 L
- Cmax ([2]; 2 mg, cohort Schedule C, n = 6): 295 ng/mL
- half-life ([2]; 3 mg, cohort Schedule A, 3.0 mg, n = 7, read-out: Effective T1/2, mean (SD) (converted)): 33.3 h
- Vd/F ([2]; 3 mg, cohort Schedule A, 3.0 mg, n = 7, read-out: Vz/F, GM (%CV)): 12.8 L
- AUC(0-t) ([2]; 3 mg, cohort Schedule A, 3.0 mg, n = 10, read-out: AUC(0–24), GM (%CV)): 4940 ng·h/mL
- AUC(0-t) ([2]; 3 mg, cohort Schedule A, 3.0 mg, n = 10, read-out: AUC(0–T), GM (%CV)): 10500 ng·h/mL
- Tmax ([2]; 3 mg, cohort Schedule A, 3.0 mg, n = 10, read-out: Tmax, median): 2 h
- Cmax ([2]; 3 mg, cohort Schedule A, n = 10): 328 ng/mL
- half-life ([2]; 3 mg, cohort Schedule B, 3.0 mg, n = 1, read-out: Effective T1/2, mean (SD) (converted)): 54 h
- Vd/F ([2]; 3 mg, cohort Schedule B, 3.0 mg, n = 1, read-out: Vz/F, GM (%CV)): 15.3 L
- AUC(0-t) ([2]; 3 mg, cohort Schedule B, 3.0 mg, n = 4, read-out: AUC(0–24), GM (%CV)): 6920 ng·h/mL
- AUC(0-t) ([2]; 3 mg, cohort Schedule B, 3.0 mg, n = 4, read-out: AUC(0–T), GM (%CV)): 28900 ng·h/mL
- Tmax ([2]; 3 mg, cohort Schedule B, 3.0 mg, n = 4, read-out: Tmax, median): 1.03 h
- Cmax ([2]; 3 mg, cohort Schedule B, n = 4): 481 ng/mL
- half-life ([2]; 3 mg, cohort Schedule C, 3.0 mg, n = 10, read-out: Effective T1/2, mean (SD) (converted)): 48.2 h
- Vd/F ([2]; 3 mg, cohort Schedule C, 3.0 mg, n = 10, read-out: Vz/F, GM (%CV)): 15.6 L
- AUC(0-t) ([2]; 3 mg, cohort Schedule C, 3.0 mg, n = 11, read-out: AUC(0–24), GM (%CV)): 4470 ng·h/mL
- AUC(0-t) ([2]; 3 mg, cohort Schedule C, 3.0 mg, n = 11, read-out: AUC(0–T), GM (%CV)): 11500 ng·h/mL
- Tmax ([2]; 3 mg, cohort Schedule C, 3.0 mg, n = 11, read-out: Tmax, median): 1 h
- Cmax ([2]; 3 mg, cohort Schedule C, n = 11): 370 ng/mL
- half-life ([2]; 4.5 mg, cohort Schedule A, 4.5 mg, n = 9, read-out: Effective T1/2, mean (SD) (converted)): 48.3 h
- Vd/F ([2]; 4.5 mg, cohort Schedule A, 4.5 mg, n = 9, read-out: Vz/F, GM (%CV)): 15.7 L
- AUC(0-t) ([2]; 4.5 mg, cohort Schedule A, 4.5 mg, n = 10, read-out: AUC(0–24), GM (%CV)): 6790 ng·h/mL
- AUC(0-t) ([2]; 4.5 mg, cohort Schedule A, 4.5 mg, n = 10, read-out: AUC(0–T), GM (%CV)): 19100 ng·h/mL
- Tmax ([2]; 4.5 mg, cohort Schedule A, 4.5 mg, n = 10, read-out: Tmax, median): 2.04 h
- Cmax ([2]; 4.5 mg, cohort Schedule A, n = 10): 478 ng/mL
- half-life ([2]; 4.5 mg, cohort Schedule C, 4.5 mg, n = 5, read-out: Effective T1/2, mean (SD) (converted)): 35.7 h
- Vd/F ([2]; 4.5 mg, cohort Schedule C, 4.5 mg, n = 5, read-out: Vz/F, GM (%CV)): 11.6 L
- AUC(0-t) ([2]; 4.5 mg, cohort Schedule C, 4.5 mg, n = 7, read-out: AUC(0–24), GM (%CV)): 7420 ng·h/mL
- AUC(0-t) ([2]; 4.5 mg, cohort Schedule C, 4.5 mg, n = 7, read-out: AUC(0–T), GM (%CV)): 17200 ng·h/mL
- Tmax ([2]; 4.5 mg, cohort Schedule C, 4.5 mg, n = 7, read-out: Tmax, median): 2.02 h
- Cmax ([2]; 4.5 mg, cohort Schedule C, n = 7): 567 ng/mL
- Tmax ([2]; 0.75–4.5 mg, read-out: Time to peak plasma concentration (median Tmax)): 1 to 4 h
